From patent US11884643B2, “Substituted thiophenecarboxamides and analogues as antibacterials agents” (priority 2018, dated 2024)
Read-outs that look alike come from different tables or passages of the source.

How the values were obtained:
[1] = Log P by HPLC on reversed phase columns (EEC directive 79/831 Annex V.A8); assay type: physicochemical
Protocol: If more than one Log P value is available within the same method, all the values are given and separated by “+”. Calibration was done with straight-chain alkan2-ones (with 3 to 16 carbon atoms) with known Log P values (measurement of Log P values using retention times with linear interpolation between successive alkanones). Lambda-max-values were determined using UV-spectra from 200 nm to 400 nm and the peak values of the chromatographic signals.

[2] = system: Xanthomonas campestris pv. Campestris; test: Xanthomonas campestris pv. Campestris in vitro cell test (bacteria growth in liquid culture); assay type: cell-based; details: 20 ppm of tested compound, 24 h of incubation
Protocol: Culture medium: LB broth medium (Luria Broth Miller) Sigma
Inoculum: bacteria suspension
Compounds to be tested were solubilized in DMSO and the solution used to prepare the required range of concentrations. The final concentration of DMSO used in the assay was ≤1%.
Inoculum was prepared from a pre-culture of bacteria grown in liquid medium and diluted to the desired optical density (OD).
Compounds were evaluated for their ability to inhibit bacteria growth in liquid culture assay. The compounds were added in the desired concentrations to culture medium containing the bacteria suspension. After 24 h of incubation, the efficacy of compounds was determined by spectrometric measurement of bacteria growth. Inhibition was determined by comparing the absorbance values in wells containing the compounds with the absorbance in control wells without compounds.

[3] = reversed phase HPLC columns, method [a]: LC-UV, acidic range, 0.1% formic acid in water and acetonitrile as eluent, read-out: LogP
[4] = reversed phase HPLC columns, value given in preparation example, method letter not indicated, read-out: Log P
[5] = method [a]: LC-UV, acidic range, 0.1% formic acid in water and acetonitrile as eluent

| SMILES | LogP [1, 5] | further results |
| --- | --- | --- |
| CCOC(=O)C1(NC(=O)c2sc(Cl)c(Cl)c2C)CC1 [XXI.11, ethyl 1-{[(4,5-dichloro-3-methyl-2-thienyl)carbonyl]amino}cyclopropanecarboxylate] | – | chromatographic logP [1, 3]: 3.16; chromatographic logP [1, 4]: 3.16 |
| CCOC(=O)C1(NC(=O)c2sc(Cl)c(Cl)c2Cl)CC1 [XXI.05, ethyl 1-{[(3,4,5-trichloro-2-thienyl)carbonyl]amino}cyclopropanecarboxylate] | 3.41^[a] | – |
| O=C(NC1(C(=O)O)CC1)c1sc(Cl)c(Cl)c1Br [XXI.22] | 2.37^[a] | – |
| CCOC(=O)C1(NC(=O)c2sc(Cl)c(Cl)c2N)CC1 [XXVIII.01, ethyl 1-{[(3-amino-4,5-dichloro-2-thienyl)carbonyl]amino}cyclopropanecarboxylate] | 2.77^[a] | Log P ([1]; value given in preparation example, method letter not indicated): 2.77 |
| Cc1c(C(=O)NC2(C(=O)O)CC2)sc(Cl)c1Cl [XXI.14] | 2.17^[a] | – |
| O=C1OC(c2sc(Br)c(Br)c2Cl)=NC12CC2 [III.08] | 4.08^[a] | – |
| O=C1OC(c2sc(Cl)c(Cl)c2Br)=NC12CC2 [III.07] | 4.12^[a] | – |
| O=C1OC(c2sc(Cl)c(Cl)c2I)=NC12CC2 [III.09] | 4.23^[a] | – |
| CCOC(=O)C1(NC(=O)c2sc(Br)c(Br)c2F)CC1 [XXI.01, ethyl 1-{[(4,5-dibromo-3-fluoro-2-thienyl)carbonyl]amino}cyclopropanecarboxylate] | – | chromatographic logP [1, 3]: 3.17; chromatographic logP [1, 4]: 3.15 |
| O=C1OC(c2sc(Br)c(Br)c2F)=NC12CC2 [III.01, 5-(4,5-dibromo-3-fluoro-2-thienyl)-6-oxa-4-azaspiro[2.4]hept-4-en-7-one] | – | chromatographic logP ([1]; Log P): 3.58; chromatographic logP ([1]; LogP): 3.57; direct activity (inhibition of bacteria growth) [2]: no direct activity |
| O=C1OC(c2sc(Br)c(Br)c2Br)=NC12CC2 [III.06] | 4.15^[a] | – |
| Cc1c(C2=NC3(CC3)C(=O)O2)sc(Cl)c1Cl [III.04] | 4.30^[a] | direct activity (inhibition of bacteria growth) [2]: no direct activity |
| Cl.Nc1c(C(=O)O)sc(Cl)c1Cl [XXXa.02, 3-amino-4,5-dichlorothiophene-2-carboxylic acid hydrochloride (1:1)] | 2.05^[a] | – |
| CCOC(=O)C1(NC(=O)c2sc(Cl)c(Cl)c2I)CC1 [XXI.08, ethyl 1-{[(4,5-dichloro-3-iodo-2-thienyl)carbonyl]amino}cyclopropanecarboxylate] | – | chromatographic logP [1, 3]: 3.39 |
| CC(C)COC(=O)c1sc(Cl)c(Cl)c1Cl [XXIIa.13] | 5.75^[a] | – |
| Cc1c(C2=NC3(CC3)C(=O)O2)sc(Br)c1Br [III.02] | 4.33^[a] | direct activity (inhibition of bacteria growth) [2]: no direct activity |
| O=C(NC1(C(=O)O)CC1)c1sc(Br)c(Br)c1F [XXI.03, 1-{[(4,5-dibromo-3-fluoro-2-thienyl)carbonyl]amino}cyclopropanecarboxylic acid] | – | chromatographic logP [1, 3]: 2.14; chromatographic logP [1, 4]: 2.15 |
| O=C1OC(c2sc(Br)c(Br)c2I)=NC12CC2 [III.05] | 4.30^[a] | direct activity (inhibition of bacteria growth) [2]: no direct activity |
| O=C(O)c1sc(Cl)c(Cl)c1Br [XXIIa.06] | 2.52^[a] | – |
| COC(=O)c1sc(Cl)c(Cl)c1Br [XXIIa.09] | 4.11^[a] | – |
| O=C1OC(c2sc(Cl)c(Cl)c2Cl)=NC12CC2 [III.03] | 4.01^[a] | direct activity (inhibition of bacteria growth) [2]: no direct activity |
